According to patent publication US8507656B2, “Stabilized angiopoietin-2 antibodies and uses thereof” (MedImmune Limited, priority 2008, dated 2013):
Entries after “also recorded” stand apart in the source; their conditions may differ. Read-outs that look alike come from different tables or passages of the source. Marks after values point to notes of the source that are not given here.

Assays:
LoVo xenograft tumors = format: in vivo; settings: 3.19.3 10 mg/kg 2×wk i.p., 5FU 100 mg/kg/week i.p., combination of both
Procedure: (§1) The anti-tumor activity of 3.19.3 was evaluated in combination with 5-Fluoruracil (5FU) in the LoVo xenograft model of colorectal cancer. LoVo cells were cultured in flasks as routine until the cells reached sub-confluence. Cell suspensions containing approximately 3×10E6 cells were injected subcutaneously into the flank of female Swiss nude mice. When the tumor volume reached 200 mm^3, the mice were randomized in treatment groups of 8-10 mice and the treatments were initiated. 3.19.3 (10 mg/kg) in saline was injected intraperitoneally, twice per week for 2 weeks and 5-Flurouracil (100 mg/kg) was administered by intraperitoneal administration following a weekly schedule. The dimensions of each tumor and body weights were measured at least twice per week. The volume of the tumor was calculated as: Volume=Length×(Width)×0.5 (cm^3).

[1] = test system: MDA-MB-231 xenograft tumors; assay: MDA-MB-231 orthotopic breast cancer xenograft model; format: in vivo; settings: 3.19.3 10 mg/kg 2×wk i.p., AZD6495 30 mg/kg bid p.o. 18 d, combination of both
Procedure: (§2) The anti-tumor activity of the anti-Angiopoietin-2 monoclonal antibody 3.19.3 in combination with the small molecule CSF1R tyrosine kinase inhibitor AZD6495 was evaluated in a xenograft model of human breast carcinoma using the MDA-MB-231 cell line (FIG. 5a).
Breast adenocarcinoma MDA-MB-231 cells were cultured in flasks as routine until the cells reach sub-confluence. Immunodeficient 7-10 week old female nude mice were orthotopically implanted with 8×10^6 MDA-MB-231 cells suspended 1:1 in Matrigel into the mammary fat pad. The mice were then randomized into cohorts containing 10 mice once the tumors reached approximately 100 mm^3. The mice were treated by intraperitoneally (IP) injection with mAb 3.19.3 (10 mg/kg) twice per week for 3 weeks thereafter, or by oral administration of AZD6495 (30 mg/kg) following bid dosing for 18 days. […] The body weights of each animal, and the dimensions of each tumor were measured twice per week. The volume of the tumor was calculated as: Volume=Length×(Width)^2×0.5 cm^3, or by bilateral Vernier caliper measurement and, taking length to be the longest diameter across the tumor and width the corresponding perpendicular, calculated using the formula (π/6)×(length×width)×√(length×width). Growth inhibition from the start of treatment was assessed by comparison of the differences in tumor volume between control and treated groups.

MCF7 xenograft tumors = assay: MCF7 breast cancer xenograft model; format: in vivo; settings: 3.19.3 10 mg/kg 2×wk i.p., AZD6495 30 mg/kg bid p.o. 18 d, combination of both
Procedure: as §2, with “AZD6495 (4-[(2,4-difluorophenyl)amino]-7-ethoxy-6-(4-methylpiperazin-1-yl)quinoline-3-carboxamide)” for “AZD6495”, “MCF7” for “MDA-MB-231”, “4a).” for “5a).”
Materials and Methods: Breast carcinoma MCF7 cells were cultured in flasks as routine until the cells reach sub-confluence. Immunodeficient 7-10 week old male NCr-nude mice were subcutaneously implanted with 8×10^6 MCF7 cells suspended 1:1 in Matrigel in the right flank. […]
The mice were then randomized into cohorts containing 15 mice once the tumors reached approximately 100 mm^3. […] The body weights of each animal, and the dimensions of each tumor were measured twice per week. The volume of the tumor was calculated as: Volume=Length×(Width)^2×0.5 cm^3, or by bilateral Vernier caliper measurement and, taking length to be the longest diameter across the tumor and width the corresponding perpendicular, calculated using the formula (π/6)×(length×width)×√(length×width). Growth inhibition from the start of treatment was assessed by comparison of the differences in tumor volume between control and treated groups.

Calu6 xenograft tumors = format: in vivo; settings: 3.19.3 10 mg/kg 2×wk i.p., Docetaxel 15 mg/kg/week i.v., combination of both
Procedure: as §1, with “with Docetaxel” for “with 5-Fluoruracil (5FU)”, “the Calu6” for “the LoVo”, “of lung” for “of colorectal”, “cancer. Calu6” for “cancer. LoVo”, “2 weeks. Docetaxel (15” for “2 weeks and 5-Flurouracil (100”, “by intravenous” for “by intraperitoneal”

Colo205 xenograft tumors = assay: Colo205 xenograft model of colorectal cancer; format: in vivo; settings: 3.19.3 10 mg/kg 2×wk i.p., Gemcitabine 50 mg/kg q3dx2 i.v., combination of both
Procedure: (§3) The anti-tumor activity of 3.19.3 was evaluated in combination with Gemcitabine in the Colo205 xenograft model of colorectal cancer. Colo205 cells were cultured in flasks as routine until the cells reached sub-confluence. Cell suspensions containing approximately 3×10E6 cells were injected subcutaneously into the flank of female Swiss nude mice. When the tumor volume reached 200 mm^3, the mice were randomized in treatment groups of 8-10 mice and the treatments were initiated. 3.19.3 (10 mg/kg) in saline was injected intraperitoneally, twice per week for 2 weeks. Gemcitabine (50 mg/kg) was administered by intravenous administration following a q3d schedule. The dimensions of each tumor and body weights were measured at least twice per week. The volume of the tumor was calculated as: Volume=Length×(Width)×0.5 (cm^3). […] The % tumor growth inhibition achieved is as follows: […]

HT-29 xenograft tumors = assay: HT-29 xenograft model of colorectal cancer; format: in vivo; settings: 3.19.3 10 mg/kg 2×wk i.p., Irinotecan 35 mg/kg/week i.v., combination of both
Procedure: as §3, with “Irinotecan” for “Gemcitabine”, “HT-29” for “Colo205”, “Irinotecan (35” for “Gemcitabine (50”, “weekly” for “q3d”

H460 xenograft tumors = format: in vivo; settings: 3.19.3 10 mg/kg 2×wk i.p., Oxaliplatin 5 mg/kg/week i.p., combination of both
Procedure: as §1, with “Oxaliplatin” for “5-Fluoruracil (5FU)”, “H460” for “LoVo”, “lung” for “colorectal”, “weeks. Oxaliplatin (5” for “weeks and 5-Flurouracil (100”

[2] = test system: collagen-induced arthritis; assay: Collagen-induced arthritis (CIA), dose response (Example 11); format: in vivo, male DBA/1 mice
[3] = test system: collagen induced arthritis
[4] = Stability study: rate of aggregation of antibody formulations; format: physicochemical; settings: 10 mg/ml in 10 mM histidine pH 6.0, two weeks
Procedure: Samples of the aforementioned formulations were incubated at either 25° C. or 40° C. for two weeks. As a measure of stability, the rate of aggregation (% aggregation/mth) was calculated after the two week time point.

[5] = Differential Scanning Calorimetry (DSC) analysis; format: physicochemical; settings: 1 g/L antibody in 10 mM histidine, pH 6.0
[6] = 3 mg/kg po daily for 14 days from disease onset
[7] = means ± SEM, 3.19.3 10 mg/kg i.p every 3 days, hIgG i.p, Prednisolone 3 mg/kg p.o daily, 14 days from disease onset

## O=c1[nH]cc(F)c(=O)[nH]1 [5-flurouracil, 5-Flurouracil]
LoVo xenograft tumors
  % tumor growth inhibition: 62%
LoVo xenograft tumors; listed as 5 FU
  % tumor growth inhibition: 62%

## CCOc1cc2ncc(C(N)=O)c(Nc3ccc(F)cc3F)c2cc1N1CCN(C)CC1 [AZD6495, 4-[(2,4-difluorophenyl)amino]-7-ethoxy-6-(4-methylpiperazin-1-yl)quinoline-3-carboxamide]
[1]
  % tumor growth inhibition: 25%
MCF7 xenograft tumors
  % tumor growth inhibition: 32%

## CC(=O)O[C@@]12CO[C@@H]1C[C@H](O)[C@@]1(C)C(=O)[C@H](O)C3=C(C)[C@@H](OC(=O)[C@H](O)[C@@H](NC(=O)OC(C)(C)C)c4ccccc4)C[C@@](O)([C@@H](OC(=O)c4ccccc4)[C@H]21)C3(C)C [Docetaxel]
Calu6 xenograft tumors
  % tumor growth inhibition: 43%

## Nc1ccn([C@@H]2O[C@H](CO)[C@@H](O)C2(F)F)c(=O)n1 [Gemcitabine]
Colo205 xenograft tumors
  % tumor growth inhibition: 8%

## CCc1c2c(nc3ccc(OC(=O)N4CCC(N5CCCCC5)CC4)cc13)-c1cc3c(c(=O)n1C2)COC(=O)[C@]3(O)CC [Irinotecan]
HT-29 xenograft tumors
  % tumor growth inhibition: 56%

## O=C1[O][Pt]2([NH][C@@H]3CCCC[C@H]3[NH]2)[O]C1=O [Oxaliplatin]
H460 xenograft tumors
  % tumor growth inhibition: 35%

## C[C@]12C=CC(=O)C=C1CC[C@@H]1[C@@H]2[C@@H](O)C[C@@]2(C)[C@H]1CC[C@]2(O)C(=O)CO [Prednisolone]
[2]; [6]
  % inhibition (AUC of Clinical Score): 78% +/− 7%*
  AUC of Clinical Score: 41 +/− 08
[2]; 3.19.3 at 1 and 10 mg/kg, prednisolone 3 mg/kg
  CD31+ microvessel density in synovium (in words): significant reduction in microvessel density; also recorded: significant reduction in the presence of microvessels
[2]; Prednisolone 3 mg/kg p.o.
  incidence and severity of all measures (in words): marked reduction in the incidence and severity of all measures
[3]; 3.19.3 10 mg/kg, Human IgG isotype control, Prednisolone 3 mg/kg
  histopathological evaluation of arthropathy lesions (in words): marked reduction in the incidence and severity of all arthropathy lesions
[3]; [7]
  % Inhibition (of AUC of clinical disease progression): 76.1% ± 9.6%
  Area Under Curve (AUC) of clinical disease progression: 24.5 ± 9.6

B1: MEDI1/5 IgG1: heavy and light chains SEQ ID Nos. 7 and 3 in IgG1 format (antibody)
VH: QVQLVESGGGVVQPGRSLRLSCAASGFTFTNYGMHWVRQAPGKGLEWVAVISHDGNNKYYVDSVKGRFTISRDNSKNTLYLQMNSLRAEDTAVYYCAREGIDFWSGLNWFDPWGQGTLVTVSS
light: EIVLTQSPGTLSLSPGERATLSCRASQSITGSYLAWYQQKPGQAPRLLITGASSWATGIPDRFSGSGSGTDFTLTISRLEPEDFAVYYCQQYSSSPITFGQGTRLEIKRTVAAPSVFIFPPSDEQLKSGTASVVCLLNNFYPREAKVQWKVDNALQSGNSQESVTEQDSKDSTYSLSSTLTLSKADYEKHKVYACEVTHQGLSSPVTKSFNRGEC
modifications: IgG1 format
[4]
  % Agg/mth @ 25° C.: 0.21 % Agg/mth
  % Agg/mth @ 40° C.: 0.21 % Agg/mth
[5]
  melting temperature: about 76 °C

B2: MEDI1/5 IgG2: heavy and light chains SEQ ID Nos. 7 and 3 in IgG2 format (antibody)
VH: QVQLVESGGGVVQPGRSLRLSCAASGFTFTNYGMHWVRQAPGKGLEWVAVISHDGNNKYYVDSVKGRFTISRDNSKNTLYLQMNSLRAEDTAVYYCAREGIDFWSGLNWFDPWGQGTLVTVSS
light: EIVLTQSPGTLSLSPGERATLSCRASQSITGSYLAWYQQKPGQAPRLLITGASSWATGIPDRFSGSGSGTDFTLTISRLEPEDFAVYYCQQYSSSPITFGQGTRLEIKRTVAAPSVFIFPPSDEQLKSGTASVVCLLNNFYPREAKVQWKVDNALQSGNSQESVTEQDSKDSTYSLSSTLTLSKADYEKHKVYACEVTHQGLSSPVTKSFNRGEC
modifications: IgG2 format
[4]
  % Agg/mth @ 25° C.: 0.61 % Agg/mth
  % Agg/mth @ 40° C.: 0.82 % Agg/mth
[5]
  melting temperature: about 76 °C
[5]; two independent trials
  behaviour after melting in DSC (in words): subsequently falls out of solution
